The values that follow come from US20110052534A1, “Imidazopyridazine Compounds for Treating Viral Infections” (priority 2009, published 2011).

Each structure is given as a SMILES string. Counter-ions that a name gives are not always drawn. Like-named read-outs stand apart in the source and are kept apart here.

Assay [1] has as its system HCV genotype 1b replicon (ET replicon). The assay is described as follows: microbe, parasite or virus in culture. Type of assay: cell-based. To be noted: Hepatitis C virus. From the text: (§1) Two cell lines were used for screening of compounds for inhibiting HCV RNA replication (genoytype 1a and 1b). Genotype la replicon cells, are a Huh-7 derived cell line bearing the genotype 1a H77NS3-5B bicistronic subgenomic replicon. See, Blight, et al., J. Virol. (2003) 77(5): 3181-3190.
(§2) The genotype 1a replicon contains several adaptive mutations (NS4B Q31H, NS5A K68R, NS5A S232I), the luciferase gene and encodes for neomycin resistance. The genotype 1b replicon, also referred to as the ET replicon, is stably transfected with RNA transcripts harboring a I389luc-ubi-neo/NS3-3′/ET replicon with firefly luciferase-ubiquitin-neomycin phosphotransferase fusion protein and EMCV-IRES driven NS3-5B polyprotein containing the cell culture adaptive mutations (E1202G; T12801; K1846T) See, Kreiger, et al., Journal of Virology 75:4614-4624 (2001). Both cell lines were grown in DMEM, supplemented with 10% fetal calf serum, 2 mM Glutamine, Penicillin (100 IU/mL)/Streptomycin (100 μg/mL), 1×nonessential amino acids, and 250 μg/mL G418 (“Geneticin”). They were all available through Life Technologies (Bethesda, Md.). The cells were plated at 0.5×10^4 cells/well in 384 well plates containing compounds. The final concentration of compounds ranged between 0.1 nM to 50 μM and the final DMSO concentration of 0.5%.
(§3) Luciferase activity was measured 48 hours later by adding a Steady glo (Promega, Madison, Wis.). Percent inhibition of replication data was plotted relative to no compound control. Under the same condition, cytotoxicity of the compounds was determined using cell titer glo (Promega, Madison, Wis.). EC50 values were determined from a 10 point dose response curve using 2-4 fold serial dilutions for each compound, which spans a concentration range of at least a 1000 fold. Replicon EC50 values, the concentration of compound required to inhibit 50% of the assay response, were calculated by curve fitting data to the Hill equation, using a non-linear least-squares curve-fitting program. The software tested the data for quality and rejected compounds with high and low activity before fitting the equation below.
(§4) Analysis was performed using an XC50 module and BioAssay Enterprise (Cambridge Soft).

Assay [2] relates to HCV genotype 1a H77 NS3-5B bicistronic subgenomic replicon. The assay is described as follows: microbe, parasite or virus in culture. To be noted: Hepatitis C virus. The format is cell-based.
Source text: as §1, §2, §3, §4

[3] abbreviates: Table 2, luciferase activity after 48 hours, read-out: HCV Genotype 1B Replicon EC50.
Setting [4] is: Table 2, luciferase activity after 48 hours, read-out: HCV Genotype 1A Replicon EC50.

For `CCCOc1ccc(-c2cc(C(C(=O)OCCC(=O)O)n3cc4nc(-c5cccc(F)c5F)nc-4cn3)on2)c(C(F)(F)F)c1` (stereo not shown) [Compound 16, 3-[([2-(2,3-Difluorophenyl)-5H-imidazo[4,5-d]pyridazin-5-yl]{3-[4-(propyloxy)-2-(trifluoromethyl)phenyl]-5-isoxazolyl}acetyl)oxy]propanoic acid sodium salt], the EC50 in assay [1] (setting [3]) was determined as 3 nM; in assay [2] (setting [4]) it was 32 nM. On the same counts, the results for `CCCOc1ccc(-c2cc(C(C(=O)OCCOCCOCCO)n3cc4nc(-c5cccc(F)c5F)nc-4cn3)on2)c(C(F)(F)F)c1` (stereo not shown) [Compound 11, 2-({2-[(2-Hydroxyethyl)oxy]ethyl}oxy)ethyl [2-(2,3-difluorophenyl)-5H-imidazo[4,5-d]pyridazin-5-yl]{3-[4-(propyloxy)-2-(trifluoromethyl)phenyl]-5-isoxazolyl}acetate] are 3 nM and 21 nM. `CCCOc1ccc(-c2ccc(C(C(=O)OCC)n3cc4nc(-c5cccc(F)c5F)nc-4cn3)cn2)c(C(F)(F)F)c1` (stereo not shown) [Compound 40, Ethyl [2-(2,3-difluorophenyl)-5H-imidazo[4,5-d]pyridazin-5-yl]{6-[4-(propyloxy)-2-(trifluoromethyl)phenyl]-3-pyridinyl}acetate]: in assay [1] (setting [3]), the EC50 was 440 nM. Consider `CCCOc1ccc(-c2cc(C(C(=O)OCCCOS(=O)(=O)O)n3cc4nc(-c5cccc(F)c5F)nc-4cn3)on2)c(C(F)(F)F)c1` (stereo not shown) [Compound 15, 3-(Sulfooxy)propyl [2-(2,3-difluorophenyl)-5H-imidazo[4,5-d]pyridazin-5-yl]{3-[4-(propyloxy)-2-(trifluoromethyl)phenyl]-5-isoxazolyl}acetate sodium salt], for which the EC50 in assay [1] (setting [3]) turned out to be 2 nM; in assay [2] (setting [4]), 14 nM. The corresponding values for `CCCCOC(=O)C(c1cc(-c2ccc(OCCC)cc2C(F)(F)F)no1)n1cc2nc(-c3cccc(F)c3F)nc-2cn1` (stereo not shown) [Compound 7, Butyl [2-(2,3-difluorophenyl)-5H-imidazo[4,5-d]pyridazin-5-yl]{3-[4-(propyloxy)-2-(trifluoromethyl)phenyl]-5-isoxazolyl}acetate] are 5 nM and 11 nM. On the same counts, the results for `CCCOc1ccc(-c2cc(C(C(=O)OCCCO)n3cc4nc(-c5cccc(F)c5F)nc-4cn3)on2)c(C(F)(F)F)c1` (stereo not shown) [Compound 5, 3-Hydroxypropyl [2-(2,3-difluorophenyl)-5H-imidazo[4,5-d]pyridazin-5-yl]{3-[4-(propyloxy)-2-(trifluoromethyl)phenyl]-5-isoxazolyl}acetate] are 6 nM and 24 nM. The corresponding values for `CCCOc1ccc(-c2cc(C(C(=O)NC)n3cc4nc(-c5cccc(F)c5F)nc-4cn3)on2)c(C(F)(F)F)c1` (stereo not shown) [Compound 20, 2-[2-(2,3-Difluorophenyl)-5H-imidazo[4,5-d]pyridazin-5-yl]-N-methyl-2-{3-[4-(propyloxy)-2-(trifluoromethyl)phenyl]-5-isoxazolyl}acetamide] are 65 nM and 920 nM. Take `CCCOc1ccc(-c2cc(C(C(=O)OC)n3cc4nc(-c5cccc(F)c5F)nc-4cn3)on2)c(C(F)(F)F)c1` (stereo not shown) [Compound 1, Methyl [2-(2,3-difluorophenyl)-5H-imidazo[4,5-d]pyridazin-5-yl]{3-[4-(propyloxy)-2-(trifluoromethyl)phenyl]-5-isoxazolyl}acetate]: the EC50 turned out to be 3 nM in assay [1] (setting [3]) and 17 nM in assay [2] (setting [4]).

On to `CCCOC(=O)C(c1cc(-c2ccc(OCCC)cc2C(F)(F)F)no1)n1cc2nc(-c3cccc(F)c3F)nc-2cn1` (stereo not shown) [Compound 3, Propyl [2-(2,3-difluorophenyl)-5H-imidazo[4,5-d]pyridazin-5-yl]{3-[4-(propyloxy)-2-(trifluoromethyl)phenyl]-5-isoxazolyl}acetate], for which the EC50 came to 5 nM in assay [1] (setting [3]) and 20 nM in assay [2] (setting [4]).

As to `CCCOc1ccc(-c2cc(C(C(=O)OC(C)C)n3cc4nc(-c5cccc(F)c5F)nc-4cn3)on2)c(C(F)(F)F)c1` (stereo not shown) [Compound 4, 1-Methylethyl [2-(2,3-difluorophenyl)-5H-imidazo[4,5-d]pyridazin-5-yl]{3-[4-(propyloxy)-2-(trifluoromethyl)phenyl]-5-isoxazolyl}acetate], the EC50 in assay [1] (setting [3]) was determined as 10 nM; in assay [2] (setting [4]), 30 nM. On the same counts, the results for `CCCOc1ccc(-c2ncc(C(C(=O)OC)n3cc4nc(-c5cccc(F)c5F)nc-4cn3)cn2)c(C(F)(F)F)c1` (stereo not shown) [Compound 58, Methyl [2-(2,3-difluorophenyl)-5H-imidazo[4,5-d]pyridazin-5-yl]{2-[4-(propyloxy)-2-(trifluoromethyl)phenyl]-5-pyrimidinyl}acetate] are 270 nM and 2600 nM.

Regarding `CCCOc1ccc(-c2ccc(C(C(=O)OC(C)C)n3cc4nc(-c5cccc(F)c5F)nc-4cn3)cn2)c(C(F)(F)F)c1` (stereo not shown) [Compound 42, 1-Methylethyl [2-(2,3-difluorophenyl)-5H-imidazo[4,5-d]pyridazin-5-yl]{6-[4-(propyloxy)-2-(trifluoromethyl)phenyl]-3-pyridinyl}acetate], the EC50 in assay [1] (setting [3]) was found to be 510 nM; in assay [2] (setting [4]), 980 nM. As to `CC(CO)(CO)COC(=O)C(c1cc(-c2ccc(C3CC3)cc2C(F)(F)F)no1)n1cc2nc(-c3cccc(F)c3F)nc-2cn1` (stereo not shown) [Compound 180, 3-hydroxy-2-(hydroxymethyl)-2-methylpropyl {3-[4-cyclopropyl-2-(trifluoromethyl)phenyl]-5-isoxazolyl}[2-(2,3-difluorophenyl)-5H-imidazo[4,5-d]pyridazin-5-yl]acetate], the EC50 was determined as 8 nM in assay [1] (Table 3, luciferase activity after 48 hours, read-out: HCV Genotype 1B Replicon EC50) and 79 nM in assay [2] (Table 3, luciferase activity after 48 hours, read-out: HCV Genotype 1A Replicon EC50).

Regarding `CCCOc1ccc(-c2cc(C(C(=O)OCC)n3cc4nc(-c5cccc(F)c5F)nc-4cn3)on2)c(C(F)(F)F)c1` (stereo not shown) [Compound 2, Ethyl [2-(2,3-difluorophenyl)-5H-imidazo[4,5-d]pyridazin-5-yl]{3-[4-(propyloxy)-2-(trifluoromethyl)phenyl]-5-isoxazolyl}acetate], the concentration giving a half-maximal response (EC50) stood at 4 nM in assay [1] (setting [3]) and 12 nM in assay [2] (setting [4]). The corresponding values for `CCCOc1ccc(-c2cc(C(C(=O)OC(C)(C)C)n3cc4nc(-c5cccc(F)c5F)nc-4cn3)on2)c(C(F)(F)F)c1` (stereo not shown) [Compound 6, 1,1-Dimethylethyl [2-(2,3-difluorophenyl)-5H-imidazo[4,5-d]pyridazin-5-yl]{3-[4-(propyloxy)-2-(trifluoromethyl)phenyl]-5-isoxazolyl}acetate] are 16 nM and 65 nM.

In the case of `CCCOc1ccc(-c2cc(C(C(=O)OCCOCCOCCOCCO)n3cc4nc(-c5cccc(F)c5F)nc-4cn3)on2)c(C(F)(F)F)c1` (stereo not shown) [Compound 12, 2-{[2-({2-[(2-Hydroxyethyl)oxy]ethyl}oxy)ethyl]oxy}ethyl [2-(2,3-difluorophenyl)-5H-imidazo[4,5-d]pyridazin-5-yl]{3-[4-(propyloxy)-2-(trifluoromethyl)phenyl]-5-isoxazolyl}acetate], the EC50 stood at 1 nM in assay [1] (setting [3]) and 17 nM in assay [2] (setting [4]). On the same counts, the results for `CCCOc1ccc(-c2cc(C(C(=O)OCCOCCOC)n3cc4nc(-c5cccc(F)c5F)nc-4cn3)on2)c(C(F)(F)F)c1` (stereo not shown) [Compound 9, 2-{[2-(Methyloxy)ethyl]oxy}ethyl [2-(2,3-difluorophenyl)-5H-imidazo[4,5-d]pyridazin-5-yl]{3-[4-(propyloxy)-2-(trifluoromethyl)phenyl]-5-isoxazolyl}acetate] are 4 nM and 2 nM. Consider `CCCOc1ccc(-c2cc(C(C(=O)OCCCOP(=O)(O)O)n3cc4nc(-c5cccc(F)c5F)nc-4cn3)on2)c(C(F)(F)F)c1` (stereo not shown) [Compound 14, 3-(Phosphonooxy)propyl [2-(2,3-difluorophenyl)-5H-imidazo[4,5-d]pyridazin-5-yl]{3-[4-(propyloxy)-2-(trifluoromethyl)phenyl]-5-isoxazolyl}acetate mono sodium salt], for which the EC50 in assay [1] (48 h, read-out: HCV Genotype 1B Replicon EC50 (nM)) turned out to be 3 nM; in assay [2] (48 h, read-out: HCV Genotype 1A Replicon EC50 (nM)), 42 nM. In the case of `CCCOc1ccc(-c2cc(C(C(=O)OCCOCCO)n3cc4nc(-c5cccc(F)c5F)nc-4cn3)on2)c(C(F)(F)F)c1` (stereo not shown) [Compound 8, 2-[(2-Hydroxyethyl)oxy]ethyl [2-(2,3-difluorophenyl)-5H-imidazo[4,5-d]pyridazin-5-yl]{3-[4-(propyloxy)-2-(trifluoromethyl)phenyl]-5-isoxazolyl}acetate], the figures for the EC50 in assay [1] (setting [3]) and in assay [2] (setting [4]) were 3 nM and 7 nM, respectively.

As a reminder, the EC50 is the concentration that produces a half-maximal response.
